Results as given in patent publication US20250296938A1, “Compounds that Interact with the Ras Superfamily for the Treatment of Cancers, Inflammatory Diseases, Rasopathies, and Fibrotic Disease” (SHY Therapeutics, LLC, priority 2018, published 2025).

Assays:
IL-6 = test: Mouse IL6 quantification assay, LPS-stimulated RAW 264.7 macrophages; type: cell-based; settings: for inhibition at 30 µM: RAW264.7, 30 μM, LPS-stimulated RAW 264.7 macrophages
Description: (§1) Cell lines: Abelson murine leukemia virus transformed macrophage cell line RAW 264.7 was purchased from ATCC and grown in complete DMEM-High Glucose medium supplemented with penicillin (100 U/mL), streptomycin (100 μg/mL), and 10% heat-inactivated FBS at 37° C. in a humidified incubator with 5% CO2.
(§2) Method: Cells were plated at 25000-40000 cells/well density in a 96-well plate. After a 3-hour incubation, macrophages were starved with DMEM plus 0.5% FBS overnight. The next day the small molecules to be tested were added to the cells in the final concentration of 30 μM (with 0.3% DMSO) 3 hours prior to LPS stimulation (100 ng/ml). After LPS stimulation cells were incubated at 37° C. for 16 h. Alternatively, compounds were also tested at 10 μM and LPS (100 ng/ml) was added concurrently and incubated 5 hours at 37° C. At the end of the incubation periods, culture medium was collected and production of LPS-induced TNF-α and IL-6 cytokine was measured using ELISA detection kits.
(§3) Sandwich ELISA: The ELISA Immunoassays Quantikine Mouse TNF-alpha (catalog number MTA00B) and IL6 (catalog number M6000B) were purchased from R&D Systems Inc., Minneapolis, MN. These 4.5 hours solid phase ELISAs were used to measure mouse TNF-α or IL-6 levels in macrophages culture supernatants. Assays were executed according to the manufacturer specifications.

TNF-α = test: Mouse TNF alpha quantification assay, LPS-stimulated RAW 264.7 macrophages; type: cell-based; settings: for inhibition at 30 µM: RAW264.7, 30 μM, LPS-stimulated RAW 264.7 macrophages
Description: as §1, §2, §3

MAPK phosphorylation = test: MAPK cell-based phosphorylation assay (ELISA or Western), PANC-1; settings: Homo sapiens; 10 μM, PANC-1 (Table 4C)
Procedure, shortened: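 Serum-starved (0.5% FBS overnight) cells given compound at 10 μM or serial dilutions (0.3% DMSO) for 6 h at 37 °C, then 1.5 ng/mL EGF for 15 min. Phospho-MAPK read by fixed-cell ELISA (fluorescence, 595 nm) or by Western blot of lysates with anti-phospho-p44/42 (Thr202/Tyr204).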

AKT phosphorylation = test: Western AKT cell-based phosphorylation assay, PANC-1; settings: Homo sapiens, PANC-1 (Table 4C)
Procedure, shortened: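 PANC-1 cells, serum-starved overnight in 0.5% FBS, were treated with compound at 10 μM (0.3% DMSO) for 6 h at 37 °C and then stimulated with 1.5 ng/ml EGF for 15 min. Lysates (15–50 μg) were immunoblotted for phospho-Akt Ser473, with ECL detection.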

SMILES | inhibition at 30 µM (IL-6) [%] | inhibition at 30 µM (TNF-α) [%] | other results
Oc1nc(-c2ccccn2)nc(CN2CCc3ccccc3C2)c1O | 0 | 0 | –
Cn1ccc(-c2sc3nc(-c4nccn4C)nc(N[C@@H]4CC[C@H](O)C4)c3c2-c2ccccc2)n1 (racemic) [drawing 774] | – | – | inhibition at 10 µM (IL-6; RAW264.7, 10 μM, LPS (100 ng/ml) added concurrently, 5 hours, RAW 264.7): 26 to 50%; inhibition at 10 µM (TNF-α; RAW264.7, 10 μM, LPS (100 ng/ml) added concurrently, 5 hours, RAW 264.7, read-out: TNFα % Inhibition): 1 to 25%
COCCNC(=O)c1sc2nc(-c3nccn3C)nc(N[C@@H]3CC[C@H](OC)C3)c2c1-c1ccccc1 [drawing 525] | – | – | inhibition at 10 µM (MAPK phosphorylation): 0%; inhibition at 10 µM (AKT phosphorylation): 0%
CO[C@H]1CC[C@@H](Nc2nc(-c3nccn3C)nc3sc(C(=O)N4CCCC4)c(-c4ccccc4)c23)C1 [drawing 526] | – | – | inhibition at 10 µM (MAPK phosphorylation): 0%; inhibition at 10 µM (AKT phosphorylation): 0%
CO[C@H]1CC[C@@H](Nc2nc(-c3nccn3C)nc3sc(C(=O)N4CCOCC4)c(-c4ccccc4)c23)C1 [drawing 527] | – | – | inhibition at 10 µM (MAPK phosphorylation): 0%; inhibition at 10 µM (AKT phosphorylation): 0%
COc1cccc(-c2csc3c(O)nc(-c4nccn4C)nc23)c1Cl [drawing 663] | 76 to 100 | 26 to 50 | –
Cn1ccnc1-c1nc(O)c2scc(-c3ccccn3)c2n1 [drawing 664] | 76 to 100 | 76 to 100 | –
Oc1nc(-c2ncc3n2CCCC3)nc2c(-c3ccccn3)csc12 [drawing 665] | 76 to 100 | 51 to 75 | –
Oc1nc(-c2cn3ccccc3n2)nc2c(-c3ccccn3)csc12 [drawing 666] | 76 to 100 | 76 to 100 | –
COCCn1ccnc1-c1nc(O)c2scc(-c3ccccn3)c2n1 [drawing 667] | 76 to 100 | 76 to 100 | –
Cc1cc(Cn2ccnc2-c2nc(O)c3scc(-c4ccccn4)c3n2)on1 [drawing 668] | 76 to 100 | 51 to 75 | –
Oc1nc(-c2nccn2Cc2ccccn2)nc2c(-c3ccccn3)csc12 [drawing 669] | 76 to 100 | 51 to 75 | –
COc1cccc(Cn2ccnc2-c2nc(O)c3scc(-c4ccccn4)c3n2)c1 [drawing 670] | 76 to 100 | 76 to 100 | –
Cc1cnc(-c2nc(O)c3scc(-c4ccccn4)c3n2)n1C [drawing 671] | 76 to 100 | 76 to 100 | –
Cc1cn(C)c(-c2nc(O)c3scc(-c4ccccn4)c3n2)n1 [drawing 672] | 76 to 100 | 76 to 100 | –
Oc1nc(-c2ncc3ccccn23)nc2c(-c3ccccn3)csc12 [drawing 673] | 76 to 100 | 76 to 100 | –
Oc1nc(-c2cn3cccnc3n2)nc2c(-c3ccccn3)csc12 [drawing 674] | 0 | 0 | –
Oc1nc(-c2cn(-c3ccccc3)cn2)nc2c(-c3ccccn3)csc12 [drawing 675] | 76 to 100 | 0 | –
COc1ccc(Cn2cnc(-c3nc(O)c4scc(-c5ccccn5)c4n3)c2)cc1 [drawing 676] | 76 to 100 | 1 to 25 | –
COCCCNc1nc(-c2nccn2C)nc2sc(-c3ccn(C)n3)c(-c3ccccc3)c12 [drawing 677] | 76 to 100 | 76 to 100 | –
COCCCN(C)c1nc(-c2nccn2C)nc2sc(-c3ccn(C)n3)c(-c3ccccc3)c12 [drawing 678] | 1 to 25 | 51 to 75 | –
COCC(C)Nc1nc(-c2nccn2C)nc2sc(-c3ccn(C)n3)c(-c3ccccc3)c12 (stereo not shown) [drawing 679] | 76 to 100 | 76 to 100 | –
COC1CCN(c2nc(-c3nccn3C)nc3sc(-c4ccn(C)n4)c(-c4ccccc4)c23)C1 (stereo not shown) [drawing 680] | 26 to 50 | 1 to 25 | –
Cn1ccc(-c2sc3nc(-c4nccn4C)nc(NC4CCOCC4)c3c2-c2ccccc2)n1 [drawing 681] | 26 to 50 | 1 to 25 | –
Cn1ccc(-c2sc3nc(-c4nccn4C)nc(NCC4CCOC4)c3c2-c2ccccc2)n1 (stereo not shown) [drawing 682] | 76 to 100 | 76 to 100 | –
CO[C@H]1CCC(Nc2nc(-c3nccn3C)nc3sc(-c4ccn(C)n4)c(-c4ccccc4)c23)C1 (stereo partly shown) [drawing 683] | 76 to 100 | 76 to 100 | –
